Measured values reported in US10258642B2, “Dextran sulfate for use in mobilization of cells” (TX MEDIC AB, priority 2013, dated 2019).
Values joined by “and” are separate entries in the source; they are usually repeats but may differ in a detail not shown here. Equal values may be shown once. Marks after values point to notes of the source that are not given here.

Assays:
SDF-1 = settings: single injection, monkeys (Sweeney 2002); cited from earlier work
peripheral blood cells [1] = settings: single dose; AMD3100 s.c., dextran sulfate i.v.
HGF [2] = test: s.c. dose finding study, HGF-ELISA; settings: 50, 150 and 500 mg/kg s.c.
HGF [3] = test: time-effect relationship, HGF-ELISA; format: in vivo, mice; settings: for HGF highest level: 15 minutes after administration, mice; for HGF: i.v., plasma, HGF measured in another experiment
Description: Plasma was prepared by centrifuging EDTA blood for 5 minutes at 3000 g, and frozen at […] until analysis.

peripheral blood cells [4] = test: combination with G-CSF, hematological analysis; format: in vivo, mice; settings: single administration, mice
Description: G-CSF (NEUPOGEN®, Amgen, Holland) was supplied as sterile isotonic aqueous solution at 0.3 mg/mL and was diluted in normal saline to a concentration of 50 μg/mL. G-CSF was administered at a dose of 2.5 μg as a single subcutaneous injection, morning and evening Day -2 and Day -1. Dextran sulfate of different average molecular weights were used:
Standard treatment of patients prior to apheresis is based on daily injections of G-CSF for up to one week. Clinically dextran sulfate could be used in combination with G-CSF. In a study in mice 2.5 μg/animal of G-CSF was administered twice daily (8 hrs apart) for 2 days (Broxmeyer 1999).

peripheral blood cells [5] = test: effect of administration route, hematological analysis; format: in vivo, mice; settings: 30 minutes after administration
Description: Peripheral blood was sampled by terminal heart puncture under isoflurane-anesthesia using EDTA-flushed syringes and transferred to polypropylene tubes containing 1.6 mg EDTA (Sarstedt, Landskrona, Sweden).
Mobilization was performed on DBA/2N mice (9-10 months, Charles River) using 100 mg/kg dextran sulfate (Meito, i.v. and s.c.).
The effect on peripheral blood cells after administration of 100 mg/kg dextran sulfate i.v. and s.c. was compared (n=5). Cells were harvested 30 minutes after administration for both administration routes.

lymphocytes = test: cell (lymphocyte) mobilization in humans after 10 min i.v. infusion; format: in vivo
Description: FIG. 13 illustrates mobilization of lymphocytes in peripheral blood in humans receiving a 10 min i.v. infusion of 15 mg/kg LMW-DS (top panel), 18 mg/kg LMW-DS (middle panel) or 24 mg/kg LMW-DS (lower panel) at time 0. The black line represents average lymphocyte levels and gray lines represent lymphocyte levels in individual humans.
Thus, the peak in cell mobilization starts about 1 hour after dextran sulfate administration, which is shown in […] exemplified by mobilization of lymphocytes following administration of different doses of dextran sulfate to human subjects at time 0 hours. Thus, the peak effect in cell mobilization in humans typically occurs within the first three hours following dextran sulfate administration.

[6] = tested on: hematopoietic colony-forming cells (CFC); test: time-effect relationship, colony-forming cell assay; format: in vivo; settings: mice
Description: Peripheral blood was sampled by terminal heart puncture under isoflurane-anesthesia using EDTA-flushed (0.2 M EDTA prepared from a stock solution of 0.5 M EDTA (prepared by Rudbeck laboratory) diluted 1:2.5 in 0.9% NaCl) syringes.

[7] = tested on: hematopoietic colony-forming cells (CFC); test: i.v. dose finding study, colony-forming cell assay; format: in vivo, mice
Description: Blood (100-200 μL) was transferred to polypropylene tubes containing heparin (final concentration 17.5 IE/mL). Erythrocytes were depleted using ammonium chloride solution (StemCell Technologies, Vancouver, BC, Canada). Remaining cells were resuspended in Iscove's modified Dulbecco's Medium with 2% fetal bovine serum (StemCell Technologies) and mixed with 2 mL of methylcellulose media supplemented with a cocktail of recombinant cytokines (MethoCult 3434; StemCell Technologies) and penicillin-streptomycin according to manufacturer's instructions. Cultures of 1.1 mL containing HPCs were plated onto 35 mm dishes (Sarstedt, Landskrona, Sweden) and placed in a humidified chamber with 5% CO2 at 37° C. Total number of colonies was counted on day 12 of culture.

peripheral blood cells [8] = test: s.c. dose finding study, hematological analysis of peripheral blood
[9] = LMW-DS (pKC) 10 mg/kg s.c., 3 hours, mean ± SEM
[10] = LMW-DS (pKC) 50 mg/kg s.c., 3 hours, mean ± SEM

Substance: dextran sulfate [LMW-DS]
- time of maximum levels of peripheral SDF-1 (SDF-1): 6 h
- time of return of peripheral SDF-1 to baseline (SDF-1): 24 h
- general increase of WBC over control (peripheral blood cells [1]): 4-5 times
- levels of circulating HGF (HGF [2]): significantly (p<0.001) increased levels
- HGF highest level (HGF [3]; listed as Dextran sulfate): 16000 pg/mL
- HGF highest level (HGF [3]; listed as dextran sulfate): 15960 pg/mL and 16000 pg/mL
- increase of HGF compared to baseline levels (HGF [3]; after 15 minutes): > 100 fold
- HGF increase relative to plerixafor (AMD3100) (HGF [3]; dextran sulfate 15 minutes versus AMD3100 after 1 hour): 25 fold
- HGF (HGF [3]; 15 min): 15,960 ± 1,450 pg/mL
- HGF (HGF [3]; 30 min): 13,800 ± 1,100 pg/mL
- HGF (HGF [3]; 1 hr): 7,740 ± 510 pg/mL
- HGF (HGF [3]; 3 hr): 710 ± 230 pg/mL
- release of lymphocytes in single therapy compared to single administration of G-CSF or plerixafor (peripheral blood cells [4]): increased lymphocytes
- release of lymphocytes in single therapy compared to single administration of G-CSF or plerixafor (peripheral blood cells [4]; listed as dextran sulfate): at least doubles
- Lymphocytes (peripheral blood cells [5]; 100 mg/kg (Meito) i.v.): 12.6 ± 1.7 *10^9/L
- WBC (peripheral blood cells [5]; 100 mg/kg (Meito) i.v.): 16.2 ± 1.8 *10^9/L
- Lymphocytes (peripheral blood cells [5]; 100 mg/kg (Meito) s.c.): 9.9 ± 1.2 *10^9/L
- circulating WBC, lymphocytes, CFC or CFC subtypes, i.v. versus s.c. (peripheral blood cells [5]; 100 mg/kg): no significant differences
- time of peak in mobilized cells after dextran sulfate administration (lymphocytes; humans): 30 to 120 min
- time at which cell mobilization is back to normal levels (lymphocytes; preliminary human data): about 24 hours
- time at which cell mobilization starts to decline (lymphocytes; preliminary human data): about 6 hours
- time of peak of cell mobilization after administration (lymphocytes; preliminary human data, lymphocytes): about 1 hour
- time at which the number of CFCs peaks (peak starts) ([6]; 100 mg/kg i.v.): 7.5 min
- time of BFU-E peak ([6]; 100 mg/kg i.v.): 7.5 min
- time of CFU-GM/CFU-GEMM peak ([6]; 100 mg/kg i.v.): 15 to 30 min
- persistence of the CFC peak [6]: at least 1 hour
- time of peak in mobilized cells (CFCs) after dextran sulfate administration [6]: 7.5 to 30 min
- mobilization effect on CFC ([7]; lowest dose given, 25 mg/kg i.v., p<0.001): significant evident already at the lowest dose given
- increase of CFC over control ([7]; single dose, AMD3100 s.c., dextran sulfate i.v.): 6-12 times
- BFU-E compared with AMD3100 ([7]; single i.v. injection): seemed to increase BFU-E to a greater extent than AMD3100
- circulating white blood cells (WBC), mainly lymphocytes, and HGF (peripheral blood cells [8]; 10-500 mg/kg s.c., 3 hours after administration): dose-dependent increase
- Basophils (peripheral blood cells [8]; [9]): 0.02 ± 0.0 10^9 cells/L
- Eosinophils (peripheral blood cells [8]; [9]): 0.2 ± 0.0† 10^9 cells/L
- Erythrocytes (peripheral blood cells [8]; [9]): 9.0 ± 0.0††† 10^12 cells/L
- Hematocrit (peripheral blood cells [8]; [9]): 0.4 ± 0.0
- Hemoglobin (peripheral blood cells [8]; [9]): 122.0 ± 1.7
- LUC (peripheral blood cells [8]; [9]): 0.1 ± 0.0* 10^9 cells/L
- Leukocytes (WBC) (peripheral blood cells [8]; [9]): 9.0 ± 1.2* 10^9 cells/L
- Lymphocytes (peripheral blood cells [8]; [9]): 6.1 ± 0.5** 10^9 cells/L
- MCHC (peripheral blood cells [8]; [9]): 323.7 ± 3.8 g/L
- MCV (peripheral blood cells [8]; [9]): 41.9 ± 0.1 fL
- MPV (peripheral blood cells [8]; [9]): 7.7 ± 0.2
- Monocytes (peripheral blood cells [8]; [9]): 0.6 ± 0.011 10^9 cells/L
- Neutrophils (peripheral blood cells [8]; [9]): 1.9 ± 0.4 10^9 cells/L
- Platelets (peripheral blood cells [8]; [9]): 1083.3 ± 116.3† 10^9 cells/L
- Reticulocytes (peripheral blood cells [8]; [9]): 222.7 ± 6.3 10^9 cells/L
- Basophils (peripheral blood cells [8]; [10]): 0.03 ± 0.0 10^9 cells/L
- Eosinophils (peripheral blood cells [8]; [10]): 0.2 ± 0.0 10^9 cells/L
- Erythrocytes (peripheral blood cells [8]; [10]): 9.2 ± 0.4† 10^12 cells/L
- Hematocrit (peripheral blood cells [8]; [10]): 0.4 ± 0.0
- Hemoglobin (peripheral blood cells [8]; [10]): 127.8 ± 5.0
- LUC (peripheral blood cells [8]; [10]): 0.1 ± 0.0* 10^9 cells/L
- Leukocytes (WBC) (peripheral blood cells [8]; [10]): 9.4 ± 0.7 10^9 cells/L
